Patent US11920165B2, “Cultivation of human noroviruses” (Baylor College of Medicine, priority 2015, dated 2024)
Read-outs that look alike come from different tables or passages of the source.

Columns and labels:
[1] = tested on: porcine enteric calicivirus; settings: Flynn and Saif, 1988; Chang et al., 2004; cited from earlier work
TCH04-577 GII.3 HuNoV [2] = assay: microbe, parasite or virus in culture; settings: Norovirus, in Homo sapiens, 72 h, read-out: Fold increase in viral genome copies compared to no bile (0-72 hpi)
Procedure: (§2) At 72 hours post infection, the cells and media were harvested and viral RNA was quantified by qRT-PCR. Each bile acid was added at a concentration of 0.5 mM.

TCH04-577 GII.3 HuNoV [3] = assay: GII.3 replication in jejunal enteroids with acid sphingomyelinase inhibitors (RT-qPCR); type: cell-based, human norovirus; settings: inhibitor present 1 hr before and during 24 hrs
Procedure: FIG. 34. Acid sphingomyelinase (ASM) inhibitors suppress GII.3 HuNoV replication. Jejunal enteroids were pretreated with inhibitors for 1 hr and inoculated with TCH04-577 for 1 hr, washed twice with CMGF(−) and cultured for 24 hrs in the presence of the inhibitors. RNA was extracted from cells and medium at 1 and 24 hpi and genome equivalents were analyzed by RT-qPCR.
Acid sphingomyelinase (ASM) that converts sphingomyelin into ceramide is involved in HuNoV infectivity, in at least certain embodiments.

TCH04-577 GII.3 HuNoV [4] = settings: J2 enteroids
Procedure: as §2

TCH04-577 GII.3 HuNoV [5] = assay: GII.3 replication in J2 jHIE monolayers with ceramide and GCDCA; type: cell-based, human norovirus; settings: ceramide alone; 24 hpi
Procedure: FIG. 32. At least one lipid, ceramide, enhances GII.3 HuNoV replication alone or in combination with the bile acid GCDCA.J2 jHIE monolayers (p.12) were inoculated with 4.3×105 genome equivalents of TCH04-577 for 1 hr, and after washing twice with CMGF(−) media to remove unbound virus, culture continued in differentiation medium for 24 hrs. The amount of infectious virus was quantified after the washing at 1 hpi (black bars) and at 24 hpi (gray bars). Additives were added to the medium during and post inoculation.
(§1) FIG. 33. Ceramide alone, or in combination with the bile acid GCDCA, enhances GII.3 but not GII.4 HuNoV replication. J2 jHIE monolayers (p.23) were inoculated with 4.3×105 or 9×105 genome equivalents of TCH04-577 or TCH12-580, respectively, for 1 hr and, and after washing twice with CMGF(−) media to remove unbound virus, culture continued in differentiation medium for 72 hrs. The amount of infectious virus was quantified after the washing at 1 hpi (black bars) and 72 hpi (gray bars). Additives (500 μM GCDCA or 500 μM GCDCA+50 μM C2-ceramide) were added to the medium during and post inoculation. Error bars denote standard deviation. p<0.01 comparing genome equivalents at 72 hpi between GCDCA and ceramide+GCDCA.

TCH11-64 GII.4 HuNoV = assay: GII.4 infection of jejunal enteroids after cholesterol extraction or trypsin treatment (VP1-positive cells); type: cell-based, human norovirus; settings: 24 hpi
Procedure: FIG. 35. Cholesterol extraction using methyl-β-cyclodextrin or treatment of cells with trypsin reduces HuNoV infection. Jejunal enteroids were untreated or treated for 45 min with methyl-β-cyclodextrin (MβCD) or 15 min with trypsin. Trypsin was inhibited with aprotinin and then the monolayer was washed prior to infection. MβCD was present during and after infection. Enteroids were infected with 3×10^6 genome equivalents of TCH11-64 GII.4 HuNoV. Enteroid monolayers were fixed at 24 hpi, VP1 detected by immunofluorescence and the number of VP1-positive cells counted per well.
In specific embodiments of the disclosure, HuNoV use a proteinaceous receptor in lipid rafts for infection. Lipid rafts are specialized domains of the cell membrane and are central for the spatial organization of receptors and signaling molecules. […] Identification of the proteinaceous molecule(s) that function as the receptor for HuNoV replication will allow production of new, simple cell systems that express this receptor and that will support HuNoV replication.

GII.4 HuNoV = GII.4 HuNoV replication in jejunal HIE monolayers with bile, bile fractions or additives (RT-qPCR); type: cell-based, human norovirus; settings: GCDCA bile acid
Procedure: FIGS. 26A-26D. Bile is not required but enhances GII.4 HuNoV replication. […] The monolayers were inoculated with 5.5×10^5 genome equivalents of (FIG. 26A) GII.4/2006b-3 or, (FIG. 26B) GII.4/2009, or (FIGS. 26C and 26D) GII.4/2012-1 in the absence or presence of the indicated bile for 1 hour at 37° C.
as §1
One can analyze these samples by mass spectroscopy to determine the bile acid, lipid, fatty acid and/or cholesterol content. Bile was also fractionated based on filtration through different molecular cut-off filters. […]

GII.4/2012-1 HuNoV = assay: GII.4/2012-1 replication and CPE in jejunal HIEs with polymyxin B-treated stool filtrate; type: cell-based, human norovirus; settings: inoculation with polymyxin B-treated samples
Procedure: FIGS. 21A-21C. […] (FIG. 21A) GII.4/2012-1 stool filtrates were not treated (−) or treated (+) with 100 μg/m polymyxin B for 24 hours. Then, 9×10^5 genome equivalents of the filtrates were inoculated onto each jejunal HIE monolayer for 1 hour. The monolayers were washed twice with CMGF(−) medium and cultured in differentiation medium. […] Error bars denote standard deviation. (FIG. 21B) Gamma irradiated or non-irradiated GII.4/2012-1 stool filtrates were either not treated (−) or treated (+) with polymyxin B for 24 hours. Jejunal HIE monolayers were inoculated with […] for 1 hour as described above. […]
We next evaluated the growth characteristics of HuNoV infection by assessing cytopathic effect (CPE), antigen detection, and the kinetics of infection. […] Two particle sizes were detected (FIG. 15D), with particles of the expected size (31.6+/−3.3 nm) and some smaller particles (FIG. 15D inset, 18.5+/−3.7 nm). […] By Western blot analysis, nonstructural polyprotein synthesis and processing (as evidenced by the detection of several VPg-containing polyprotein processing intermediates) and capsid protein (VP1) production were first detected at 12 hpi in infected cells but not at 1 or 6 hpi or in mock-infected cells (FIG. 15E). Consistent with the production of virus particles (FIG. 15D), VP1 was detected in the culture supernatant by 24 hpi (FIG. 15E). […]

[6] = tested on: GI.1, GII.3, GII.17 HuNoVs; assay: Replication of other HuNoV strains in jejunal HIE monolayers with components of the intestinal milieu; settings: GI.1, GII.3, GII.17 in jejunal HIE monolayers
Procedure: The monolayers were washed three times with CMGF(−) medium and cultured for the indicated days in differentiation medium in the absence (0%) or presence of the indicated concentrations of bile. At 1 hour and the indicated time post-inoculation, the cells and medium were harvested, RNA extracted and viral genome equivalents quantified by RT-qPCR. Data represent the mean of three wells for each treatment and time point. Error bars denote standard deviation. *, P<0.05 comparing genome equivalents from 1 hpi to the indicated time points.
We next tested whether monolayer cultures of jejunal HIEs could support replication of other HuNoV strains (GI.1, GII.3, GII.17). […] Consequently, several components of the intestinal milieu were assessed for their ability to promote replication of these HuNoVs in HIE monolayers.

C[C@H](CCC(=O)NCCS(=O)(=O)O)[C@H]1CC[C@H]2[C@@H]3[C@@H](O)C[C@@H]4C[C@H](O)CC[C@]4(C)[C@H]3CC[C@]12C [TUDCA, Tauroursodeoxycholic acid]
replication of porcine enteric calicivirus [1]: did not enhance | fold induction at 500 µM (TCH04-577 GII.3 HuNoV [2]): 27

C[C@H](CCC(=O)NCC(=O)O)[C@H]1CC[C@H]2[C@@H]3[C@H](O)C[C@@H]4C[C@H](O)CC[C@]4(C)[C@H]3C[C@H](O)[C@]12C [GCA, Glycocholic acid]
fold induction at 500 µM (TCH04-577 GII.3 HuNoV [2]): 48

CN(C)CCC=C1c2ccccc2CCc2ccccc21 [amitriptyline]
GII.3 replication (TCH04-577 GII.3 HuNoV [3]): significantly reduced | dose dependence of the effect on GII.3 replication (TCH04-577 GII.3 HuNoV [3]): dose-dependent decrease

CC(CCC(=O)NCC(=O)O)C1CCC2C3CCC4CC(O)CCC4(C)C3CC(O)C12C (stereo not shown) [GDCA, glycodeoxycholic acid]
fold induction at 500 µM (TCH04-577 GII.3 HuNoV [2]): 160

C[C@H](CCC(=O)NCCS(=O)(=O)O)[C@H]1CC[C@H]2[C@@H]3[C@H](O)C[C@@H]4C[C@H](O)CC[C@]4(C)[C@H]3CC[C@]12C [TCDCA, Taurochenodeoxycholic acid]
Fold increase in viral genome copies compared to no bile (0-72 hpi) (TCH04-577 GII.3 HuNoV [4]; bile acid 500 uM): 48-103 fold

CCCCCCCCCCCCC/C=C/[C@@H](O)[C@H](CO)NC(C)=O [Ceramide, C2-ceramide]
GII.3 replication (TCH04-577 GII.3 HuNoV [5]): enhances

C[C@H](CCC(=O)NCCS(=O)(=O)O)[C@H]1CC[C@H]2[C@@H]3[C@H](O)C[C@@H]4C[C@H](O)CC[C@]4(C)[C@H]3C[C@H](O)[C@]12C [TCA, Taurocholic acid]
fold induction at 500 µM (TCH04-577 GII.3 HuNoV [2]): 65

C[C@H](CCC(=O)NCCS(=O)(=O)O)[C@H]1CC[C@H]2[C@@H]3CC[C@@H]4C[C@H](O)CC[C@]4(C)[C@H]3C[C@H](O)[C@]12C [TDCA, Taurodeoxycholic acid]
fold induction at 500 µM (TCH04-577 GII.3 HuNoV [2]): 95

methyl-β-cyclodextrin
GII.4 infection (VP1-positive cells per well) (TCH11-64 GII.4 HuNoV): significantly reduced

CN(C)CCCN1c2ccccc2Sc2ccc(Cl)cc21 [chlorpromazine]
GII.3 replication (TCH04-577 GII.3 HuNoV [3]): significantly reduced | dose dependence of the effect on GII.3 replication (TCH04-577 GII.3 HuNoV [3]): dose-dependent decrease

C[C@H](CCC(=O)O)[C@H]1CC[C@H]2[C@@H]3[C@@H](O)C[C@@H]4C[C@H](O)CC[C@]4(C)[C@H]3CC[C@]12C [UDCA, ursodeoxycholic acid]
Fold increase in viral genome copies compared to no bile (0-72 hpi) (TCH04-577 GII.3 HuNoV [4]; bile acid 500 uM): no increase

C[C@H](CCC(=O)NCCS(=O)(=O)O)[C@H]1CC[C@H]2[C@@H]3CC[C@@H]4C[C@H](O)CC[C@]4(C)[C@H]3CC[C@]12C [TLCA, taurolithocholic acid]
fold induction at 500 µM (TCH04-577 GII.3 HuNoV [2]): 268

CC(CCC(=O)NCC(=O)O)C1CCC2C3C(O)CC4CC(O)CCC4(C)C3CCC12C (stereo not shown) [GCDCA, Glycochenodeoxycholic acid]
GII.4 replication (GII.4 HuNoV): can enhance | fold induction at 500 µM (TCH04-577 GII.3 HuNoV [2]): 71 to 106

polymyxin B
CPE (GII.4/2012-1 HuNoV): not reduced

C[C@H](CCC(=O)O)[C@H]1CC[C@H]2[C@@H]3[C@H](O)C[C@@H]4C[C@H](O)CC[C@]4(C)[C@H]3CC[C@]12C [CDCA, chenodeoxycholic acid]
Fold increase in viral genome copies compared to no bile (0-72 hpi) (TCH04-577 GII.3 HuNoV [4]; bile acid 100 uM): no increase

C[C@H](CCC(=O)O)[C@H]1CC[C@H]2[C@@H]3[C@H](O)C[C@@H]4C[C@H](O)CC[C@]4(C)[C@H]3C[C@H](O)[C@]12C [CA, cholic acid]
fold induction at 500 µM (TCH04-577 GII.3 HuNoV [2]): 49 to 63

B1: trypsin: protease that cleaves proteins (protein, UniProt P00760 24-246, looked up)
Serine protease 1: IVGGYTCGANTVPYQVSLNSGYHFCGGSLINSQWVVSAAHCYKSGIQVRLGEDNINVVEGNEQFISASKSIVHPSYNSNTLNNDIMLIKLKSAASLNSRVASISLPTSCASAGTQCLISGWGNTKSSGTSYPDVLKCLKAPILSDSSCKSAYPGQITSNMFCAGYLEGGKDSCQGDSGGPVVCSGKLQGIVSWGSGCAQKNKPGVYTKVCNYVSWIKQTIASN
GII.4 infection (VP1-positive cells per well) (TCH11-64 GII.4 HuNoV): reduced | HuNoV replication [6]: failed to enhance
